Experiments:
WspR [1] = molecular target: T1, WspR (Pseudomonas aeruginosa, UniProt Q9HXT9); assay: c-di-GMP synthesis, C18-HPLC; format: biochemical; details: 100 µM GTP, 40 µM protein, 10 mM MgCl2, pH 7.8, 25 °C
T1 construct: His-tagged, pET28a-wspR, E. coli BL21(DE3), Ni-NTA and SEC

PleDSM [2] = molecular target: T2, PleDSM (Sinorhizobium meliloti, UniProt Q92QM5); assay: c-di-GMP synthesis, C18-HPLC; format: biochemical; details: 100 µM GTP, 40 µM protein, 10 mM MgCl2, pH 7.8, 25 °C
T2 construct: gene pleD; His-tagged, pET28a-pleDSM, E. coli BL21(DE3), Ni-NTA and SEC
T2 sequence (Q92QM5 1-455): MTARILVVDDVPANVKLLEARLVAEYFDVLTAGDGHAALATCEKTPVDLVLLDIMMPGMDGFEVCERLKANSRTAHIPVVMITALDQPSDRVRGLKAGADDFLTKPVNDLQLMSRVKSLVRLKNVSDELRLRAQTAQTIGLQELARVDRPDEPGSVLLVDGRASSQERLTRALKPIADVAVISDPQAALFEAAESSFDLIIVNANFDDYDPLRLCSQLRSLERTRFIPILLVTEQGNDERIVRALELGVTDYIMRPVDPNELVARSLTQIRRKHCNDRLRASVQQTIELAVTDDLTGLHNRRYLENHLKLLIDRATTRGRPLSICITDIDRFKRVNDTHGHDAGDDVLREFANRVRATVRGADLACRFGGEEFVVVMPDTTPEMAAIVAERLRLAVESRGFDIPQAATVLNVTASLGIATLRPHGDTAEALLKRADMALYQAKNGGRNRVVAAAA

PleDAT [3] = molecular target: T3, PleDAT (Agrobacterium fabrum, UniProt A9CJ98); assay: c-di-GMP synthesis, C18-HPLC; format: biochemical; details: 100 µM GTP, 40 µM protein, 10 mM MgCl2, pH 7.8, 25 °C, 2 h
T3 construct: gene pleD; His-tagged, pET28a-pleDAT, E. coli BL21(DE3), Ni-NTA and SEC

PleD (PleDCC) [4] = molecular target: T4, PleD (PleDCC) (Caulobacter vibrioides, UniProt B8GZM2); assay: ITC; format: binding
T4 construct: full-length D1-D2-DGC, His-tagged, pET11b-pleD, E. coli BL21(DE3), Ni-NTA and SEC; unphosphorylated
T4 sequence (B8GZM2 1-454): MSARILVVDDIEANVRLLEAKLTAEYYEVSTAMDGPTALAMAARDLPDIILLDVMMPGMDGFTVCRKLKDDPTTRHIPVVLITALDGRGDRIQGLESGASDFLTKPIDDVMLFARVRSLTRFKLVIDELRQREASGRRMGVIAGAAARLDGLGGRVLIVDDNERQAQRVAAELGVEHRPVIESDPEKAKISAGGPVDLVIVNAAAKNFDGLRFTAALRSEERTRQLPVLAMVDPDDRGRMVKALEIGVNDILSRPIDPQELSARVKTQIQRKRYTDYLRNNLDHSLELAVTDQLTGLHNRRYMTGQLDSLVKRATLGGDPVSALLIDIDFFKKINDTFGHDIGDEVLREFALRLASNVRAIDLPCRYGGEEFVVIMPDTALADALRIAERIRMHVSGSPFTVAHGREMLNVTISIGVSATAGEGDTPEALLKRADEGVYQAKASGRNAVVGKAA

PleDSM [5] = molecular target: T2, PleDSM; assay: c-di-GMP synthesis, C18-HPLC; format: biochemical; details: 100 µM GTP, 40 µM protein, 10 mM MgCl2, pH 7.8, 25 °C, 2 h
PleD (PleDCC) [6] = molecular target: T4, PleD (PleDCC); assay: c-di-GMP synthesis, C18-HPLC; format: biochemical
PleDAT [7] = molecular target: T3, PleDAT; assay: nanoDSF; format: binding; details: 100 µM protein, 1 mM ligand, pH 7.8, 5 mM MgCl2
WspR [8] = molecular target: T1, WspR; assay: c-di-GMP synthesis, C18-HPLC; format: biochemical
PleD (PleDCC) [9] = molecular target: T4, PleD (PleDCC); assay: crystal structure ([…] and […] Å); format: binding; details: I-site (inhibitory site), two molecules per monomer; with ppGpp (9G85) or pppGpp (9G86)

T3 sequence (A9CJ98 entry or part of it): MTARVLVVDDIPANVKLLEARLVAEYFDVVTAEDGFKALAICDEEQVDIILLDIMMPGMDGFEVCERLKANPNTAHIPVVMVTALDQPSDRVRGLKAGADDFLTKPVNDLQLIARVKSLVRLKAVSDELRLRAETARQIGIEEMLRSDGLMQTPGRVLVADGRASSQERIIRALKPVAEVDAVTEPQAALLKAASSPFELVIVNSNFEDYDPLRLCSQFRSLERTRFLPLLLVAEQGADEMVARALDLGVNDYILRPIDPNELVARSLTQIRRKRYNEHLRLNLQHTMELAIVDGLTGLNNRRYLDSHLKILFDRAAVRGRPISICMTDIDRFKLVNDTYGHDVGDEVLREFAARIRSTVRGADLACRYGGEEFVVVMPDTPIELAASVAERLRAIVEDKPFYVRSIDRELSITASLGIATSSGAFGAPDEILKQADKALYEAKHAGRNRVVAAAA
T1 sequence (Q9HXT9 entry or part of it): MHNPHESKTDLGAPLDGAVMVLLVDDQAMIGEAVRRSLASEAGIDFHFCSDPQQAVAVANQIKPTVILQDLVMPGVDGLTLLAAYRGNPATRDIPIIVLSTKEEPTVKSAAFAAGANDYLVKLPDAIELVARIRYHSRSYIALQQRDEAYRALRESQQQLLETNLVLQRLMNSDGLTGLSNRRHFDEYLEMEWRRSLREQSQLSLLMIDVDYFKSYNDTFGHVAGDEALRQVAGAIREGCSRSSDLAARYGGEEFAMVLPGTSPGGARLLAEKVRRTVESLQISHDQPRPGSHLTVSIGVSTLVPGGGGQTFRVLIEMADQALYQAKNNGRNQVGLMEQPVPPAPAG

Structure (SMILES)	% inhibition at 500 μM (PleDAT [3])	Kd (PleD (PleDCC) [4])	% inhibition at 500 μM (PleDSM [5])	inhibition at 500 µM (PleD (PleDCC) [6])	ΔTm (PleDAT [7])	further results
Nc1nc2c(ncn2[C@@H]2O[C@H](COP(=O)(O)OP(=O)(O)OP(=O)(O)O)[C@@H](O)[C@H]2O)c(=O)[nH]1 [GTP]						c-di-GMP synthesis, C18-HPLC (WspR [1]): c-di-GMP production by different diguanylate cyclases (DGCs); c-di-GMP synthesis, C18-HPLC (PleDSM [2]): c-di-GMP production by different diguanylate cyclases (DGCs)
Nc1nc2c(ncn2[C@@H]2O[C@H](COP(=O)(O)OP(=O)(O)O)[C@@H](OP(=O)(O)OP(=O)(O)O)[C@H]2O)c(=O)[nH]1 [ppGpp]	ppGpp and pppGpp strongly inhibited c-di-GMP production	45.4 ± 22.3 µM	ppGpp and pppGpp strongly inhibited c-di-GMP production	> 50%	NanoDSF assays further confirmed PleDAT binding to (p)ppGpp	
Nc1nc2c(ncn2[C@@H]2O[C@H](COP(=O)(O)OP(=O)(O)OP(=O)(O)O)[C@@H](OP(=O)(O)OP(=O)(O)O)[C@H]2O)c(=O)[nH]1 [pppGpp]	ppGpp and pppGpp strongly inhibited c-di-GMP production, with pppGpp showing greater potency	9.31 ± 1.16 µM	ppGpp and pppGpp strongly inhibited c-di-GMP production, with pppGpp showing greater potency	> 90%	NanoDSF assays further confirmed PleDAT binding to (p)ppGpp	inhibition at 500 µM (WspR [8]): > 50%
Nc1nc2c(ncn2[C@@H]2O[C@@H]3COP(=O)(O)O[C@H]4[C@@H](O)[C@H](n5cnc6c(=O)[nH]c(N)nc65)O[C@@H]4COP(=O)(O)O[C@H]3[C@H]2O)c(=O)[nH]1 [c-di-GMP]						crystal structure (2.9 and 3 Å) (PleD (PleDCC) [9]): each monomer of the (p)ppGpp-PleD structures is bound by two cyclic di-GMP molecules
Nc1nc2c(ncn2[C@@H]2O[C@H](COP(=O)(O)CP(=O)(O)OP(=O)(O)O)[C@@H](O)[C@H]2O)c(=O)[nH]1 [GpCpp]		6.01 ± 1.52 µM				

From paper doi:10.1101/2025.08.22.671821v1, “Cross-regulation of (p)ppGpp and c-di-GMP pathways controls a cell-cycle transition” (biorxiv, 2025)
